Test results from patent publication US5302602A, “Tricyclic thromboxane A2 antagonists” (Kyowa Hakko Kogyo Co., Ltd., priority 1987, dated 1994).
Read-outs that look alike come from different tables or passages of the source.

Key:
mice = experiment: Acute toxicity test; type: in vivo; conditions: mortality observed for seven days
Description: Using three dd strain male mice weighing 20±1 g, a test compound was orally (po; 300 mg/kg) or intraperitoneally (ip; 100 mg/kg) administered. MLD (the minimum lethal dose) was determined by observing the mortality for seven days after administration.

TXA2 receptor = molecular target: T1, TXA2 receptor (Cavia porcellus, UniProt A0A286Y4I8); experiment: Binding study using 3H-U46619 (TXA2 receptor binding activities test); set-up: species or system guinea pig; conditions: for inhibition at 1 µM: 20 min, test compound 1 μM, 12 nM 3H-U46619, washed guinea pig platelets, 37° C., 20 minutes, read-out: % Inhibition (3H-U46619 binding)
T1 construct: To a washed platelet suspension (1×10^8 platelets) of guinea pig; endogenous in cells; host or cells: washed guinea pig platelets
T1 sequence (A0A286Y4I8 1-347): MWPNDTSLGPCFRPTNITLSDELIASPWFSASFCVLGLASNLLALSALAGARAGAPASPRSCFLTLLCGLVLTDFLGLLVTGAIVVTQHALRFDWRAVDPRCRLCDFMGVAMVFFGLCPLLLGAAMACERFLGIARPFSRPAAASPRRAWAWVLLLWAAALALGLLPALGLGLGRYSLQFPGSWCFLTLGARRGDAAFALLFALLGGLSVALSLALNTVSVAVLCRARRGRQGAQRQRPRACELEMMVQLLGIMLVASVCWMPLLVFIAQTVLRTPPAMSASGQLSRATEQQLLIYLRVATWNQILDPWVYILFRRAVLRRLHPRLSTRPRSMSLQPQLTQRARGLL
Description: Receptor binding was determined by a modified method of Kattelman et al. (Thrombosis Research, 41, 471 (1986)].
To a washed platelet suspension (1×10^8 platelets) of guinea pig were added 12 nM of tritium-labeled U46619 (^3 H-U46619; NEN Co., Ltd.) and a test compound (final concentration: 1 μM) solution. After keeping at 37° C. for 20 minutes, the mixture was rapidly filtered through a glass fiber filter paper (GF/C; Whatman). Immediately, the filter paper was washed 5 times with 3 ml of ice-cold 50 mM Tris-hydroxymethylaminomethane buffer (containing 100 mM sodium chloride). The glass fiber filter was transferred to a vial and a scintillator (Ex-H; manufactured by Wako Pure Chemical Industries Co., Ltd.) was added thereto. The radioactivity was determined with a liquid scintillation counter.
It is already known that ^3 H-U46619 is capable of binding with TXA2 receptor (see the publication supra). An inhibitory activity of the test compound against this binding means an ability of binding with the TXA2 receptor. It is also known that a good relationship exists between this binding activity and the anti-platelet activity (TXA2 antagonizing test).
An inhibitory activity (binding activity) of the test compound was calculated by the following equation. [formula]
Amount of the total binding is an amount of ^3 H-U46619-bound radioactivity in the absence of a test compound.
The amount of non-specific binding is used to mean an amount of ^3 H-U46619-bound radioactivity in the presence of 10 μM U-46619.
The amount bound in the presence of a test compound is an amount of ^3 H-U46619-bound radioactivity in the presence of a test compound in various concentrations.

[1] = test system: guinea pig platelets (TXA2/prostaglandin H2 receptor); experiment: Test on anti-platelet activity (TXA2 antagonizing test): inhibition of U-46619-induced platelet aggregation; type: cell-based; conditions: Cavia porcellus, 0.05 h; minimum concentration inhibiting U-46619 (0.5-1 μM)-induced platelet aggregation by 30% or more; guinea pig PRP; read-out: TXA2 Antagonizing Activity (MEC), minimum effective concentration
Description: Using guinea pig platelets influence of the compounds in accordance with the present invention on platelet aggregation induced by U-46619 (9,11-dideoxy-9α,11a-methanoepoxyprostaglandin F2 α; manufactured by Cayman Chemica Co., Ltd.) which is a TXA2 /prostaglandin H2 receptor stimulant was examined.
Male guinea pig (Hartley strain; body weight, 300 to 600 g) was anesthesized by intraperitoneal administration of sodium pentobarbital (30 mg/kg) and blood was collected from the descending aorta of the abdomen with a 1/10 volume of sodium citrate. By centrifugation (KC-70: manufactured by Kubota Co., Ltd.) at 800 rpm for 10 minutes, platelet rich plasma (PRP) was collected. Platelet aggregation induced by U-46619 (0.5-1 μM) was determined by photometry [Born, G.V.R. et al., Nature (London), 194, 927-929 (1962)]. A test compound was pretreated 3 minutes prior to aggregation induction and ability of inhibiting aggregation was measured. The minimum concentration for inhibiting platelet aggregation by 30% or more was defined as the minimum effective concentration (MEC) of the test compound.

histamine H1 receptor = molecular target: T2, histamine H1 receptor (Cavia porcellus, UniProt P31389); experiment: Binding study using 3H-pyrilamine (histamine H1 receptor binding); set-up: species or system guinea pig; conditions: read-out: (%) Inhibition (3H-pyrilamine binding)
T2 construct: from tissue; host or cells: guinea pig cerebellum membranes
T2 sequence (P31389 whole entry): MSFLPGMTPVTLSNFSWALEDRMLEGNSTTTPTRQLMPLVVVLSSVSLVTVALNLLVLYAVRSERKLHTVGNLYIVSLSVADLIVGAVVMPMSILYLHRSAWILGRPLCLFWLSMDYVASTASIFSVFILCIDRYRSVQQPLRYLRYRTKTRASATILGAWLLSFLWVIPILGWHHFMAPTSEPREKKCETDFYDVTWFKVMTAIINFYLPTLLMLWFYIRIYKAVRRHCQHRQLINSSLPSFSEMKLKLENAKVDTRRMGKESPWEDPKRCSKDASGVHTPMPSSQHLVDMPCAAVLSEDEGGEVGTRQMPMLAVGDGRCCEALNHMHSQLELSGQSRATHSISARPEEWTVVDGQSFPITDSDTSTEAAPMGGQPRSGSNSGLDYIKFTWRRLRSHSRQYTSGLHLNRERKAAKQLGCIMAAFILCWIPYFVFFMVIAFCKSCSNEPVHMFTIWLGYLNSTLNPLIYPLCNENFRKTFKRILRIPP
Description: Receptor binding was determined by the method of chang et al. [J. Neurochem., 32, 1953 (1979)].
The cerebellum of guinea pig was suspended in a 40-fold amount (V/W) of chilled 50 mM phosphate buffer (pH 7.5) with Polytron Homogenizer (Kinematica Co., Ltd.). The suspension was centrifuged (35,500×g, 10 minutes). The resulting precipitates were resuspended in an equal amount of fresh buffer followed by centrifugation. A 100-fold amount (V/W) of chilled buffer was added to the final precipitates.
To 1 ml of the membrane suspension adjusted as described above were added 50 μl of tritium-labeled pyrilamine (^3 H-pyrilamine; NEN Co., Ltd.) and 50 μl of a test compound. The mixture was allowed to stand at 25° C. for 30 minutes, 4 ml of chilled buffer was added thereto. The mixture was rapidly filtered through a glass fiber filter (GF/C; Whatman). The filter paper was further washed three times with 5 ml of buffer. Hereafter procedures were performed in a manner similar to the TXA2 receptor binding test to determine radioactivity.
An inhibitory activity of the test compound against H1 receptor was calculated by the following equation. [formula]
Amount of the total binding is an amount of ^3 H-pyrilamine-bound radioactivity in the absence of a test compound.
The amount of non-specific binding is an amount of ^3 H-pyrilamine-bound radioactivity in the presence of 3 μM Astemizole (manufactured by Janesen Pharmaceutics).
The amount bound in the presence of a test compound is an amount of ^3 H-pyrilamine-bound radioactivity in the presence of a test compound in various concentrations.

[2] = test system: homologous passive cutaneous anaphylaxis (PCA); experiment: Antiallergic activity test: homologous passive cutaneous anaphylaxis (PCA) test for 48 hours using rats; type: in vivo, rat (Wistar strain, male); conditions: Rattus norvegicus, po, minimum dose with at least one of 3 rats showing PCA inhibition rate 50% or more, read-out: Antiallergic Activity (MED), minimum effective dose
Description: Antiallergic activity was examined in accordance with the passive cutaneous anaphylaxis (PCA) test using rats. As test animals, Wistar strain male rats weighing 180 to 220 g were used to collect antiserum and for the PCA test, Wistar strain male rats weighing 120 to 140 g were used.
Anti-EWA rat serum was prepared according to the method of Stotland and Share [Can. J. Physiol. Pharmacol., 52, 1114 (1974)]. That is, 1 mg of EWA was mixed with 20 mg of aluminum hydroxide gel and 0.5 ml of pertussis-diphtberia-tetanus mixed vaccine. The mixture was subcutaneously administered to the rat paw in 4 portions. Fourteen days after, blood was collected from the carotid artery and the serum was isolated and stored in a state frozen at -80° C. Titer of this antiserum to homologous PCA for 48 hours was 1:32.
Three rats were used per group. After the hair at the back was cut, 0.05 ml each of anti-EWA rat serum diluted to 8-fold with physiological saline was intracutaneously injected to each rat at the back in 2 places to passively sensitize the rat. A test compound or its solution (physiological saline solution or CMC solution) was orally administered 47 hours after and 0.5 ml/100 g of 1% Evans Blue physiological saline containing 2 mg of antigen EWA was then intravenously administered to the tail vein an hour after the administration. Thirty minutes later, the animal was bled to death. The skin was peeled off and a leaked dye amount at the blue dyed portion was measured according to the method of Katayama et al. [Microbiol. Immunol., 22, 89 (1978)]. That is, the blue dyed portion was cut off with scissors, put into a test tube charged with 1 ml of 1 N potassium hydroxide and incubated at 37° C. for 24 hours. After 9 ml of a mixture of 0.6 N phosphate:acetone (5:13) was added to the system, the mixture was shaken followed by centrifugation at 2500 rpm for 10 minutes. The absorbancy of the supernatant at 620 nm was measured and the leaked dye amount was quantitatively determined by comparison with a calibration curve previously prepared. A value of one rat was obtained from a mean value of the two portions and an inhibition rate-of each rat was calculated according to the following equation. [formula]
The case showing that the inhibition rate is 50% or more is judged to be positive in the PCA inhibition activity and the minimum dose in which at least one out of 3 rats was recognized to be positive was defined as the minimum effective dose (MED) of the test compound.

SMILES | Acute Toxicity (MLD), minimum lethal dose (mice; ip) | Acute Toxicity (MLD), minimum lethal dose (mice; po) | inhibition at 1 µM (TXA2 receptor) | minimal effective concentration [1] | inhibition at 1 µM (histamine H1 receptor; test compound 10^-6 M, guinea pig cerebellum membranes, 25° C., 30 minutes) | minimal effective dose [2] | inhibition at 1 µM (histamine H1 receptor) | inhibitory activity (TXA2 receptor binding), in words (TXA2 receptor; statement in words on Table 4)
O=C(O)COc1ccc(CCNS(=O)(=O)c2ccccc2)cc1 [BM13177, reference compound] | > 100 mg/kg | > 300 mg/kg | 31% | 3 µg/mL | 0% | > 100 mg/kg |  | 
O=C(O)c1ccc2c(c1)C(SCCN1CCN(c3ccccc3)CC1)c1ccccc1CO2 (stereo not drawn) [Compound 1b, 11-[2-(4-Phenyl-1-piperazinyl)ethyl]thio-6,11-dihydrodibenz[b,e]oxepin-2-carboxylic acid] | > 100 mg/kg | > 300 mg/kg |  | 3 µg/mL |  | 10 mg/kg | 68% | 
O=C(O)c1ccc2c(c1)C(SCCN1CCN(Cc3ccccc3)CC1)c1ccccc1CO2 (stereo not drawn) [Compound 11b, 11-[2-(4-Benzyl-1-piperazinyl)ethyl]thio-6,11-dihydrodibenz[b,e]oxepin-2-carboxylic acid] | > 100 mg/kg | > 300 mg/kg | 70% | 1 µg/mL |  | 10 mg/kg | 95% | 
O=C(O)c1ccc2c(c1)C(SCCN1CCN(S(=O)(=O)c3cccs3)CC1)c1ccccc1CO2 (stereo not drawn) [Compound 25b, 11-[2-[4-(2-Thienylsulfonyl)-1-piperazinyl]ethyl]thio-6,11-dihydrodibenz[b,e]oxepin-2-carboxylic acid.0.5 isopropanol.dihydrate] | > 100 mg/kg | > 300 mg/kg | 78% | 3 µg/mL |  | 10 mg/kg | 95% | 
O=C(O)c1ccc2c(c1)C(SCCN1CCC(Cc3ccccc3)CC1)c1ccccc1CO2 (stereo not drawn) [Compound 38b] |  |  | 81% | 1 µg/mL |  | 1 mg/kg | 92% | 
CN(C)CCSC1c2ccccc2COc2ccc(C(=O)O)cc21 (stereo not drawn) [Compound (A), reference compound] |  |  | -4% |  |  |  | 88% | not observed
